Earlier results as cited in US8529935B2, “Antibacterial hydrogel and use thereof in orthopedics” (Mero S.R.L., priority 2009, dated 2013).

Details: known from the literature

Row | SMILES | minimum inhibiting concentration (MIC)
1 | NC[C@H]1O[C@H](O[C@H]2[C@H](O)[C@@H](O[C@H]3O[C@H](CO)[C@@H](O)[C@H](N)[C@H]3O)[C@H](N)C[C@@H]2N)[C@H](N)C[C@@H]1O [tobramycin] | about 1 mg/l
2 | CN[C@H](CC(C)C)C(=O)N[C@H]1C(=O)N[C@@H](CC(N)=O)C(=O)N[C@H]2C(=O)N[C@H]3C(=O)N[C@H](C(=O)N[C@H](C(=O)O)c4cc(O)cc(O)c4-c4cc3ccc4O)[C@H](O)c3ccc(c(Cl)c3)Oc3cc2cc(c3O[C@@H]2O[C@H](CO)[C@@H](O)[C@H](O)[C@H]2O[C@H]2C[C@](C)(N)[C@H](O)[C@H](C)O2)Oc2ccc(cc2Cl)[C@H]1O [vancomycin] | 1.56 to 3.12 µg/mL
